Laboratory results as given in US6437184B1, “Oxime compounds, their use, and intermediates for their production” (Sumitomo Chemical Company, Limited, priority 1997, dated 2002).

Columns and labels:
Plutella xylostella = test: Insecticidal test against Plutella xylostella; format: in vivo; settings: 96 h, 50 ppm water dilution sprayed over potted cabbages, 25 ml per pot, third-instar larvae, after 4 days, read-out: mortality
Protocol: To a water dilution (50 ppm) of a test compound formulation obtained according to Formulation Example 1 was added a spreading agent (New RINOU available from Nihon Noyaku K.K.) at a dilution ratio of 3000-fold. The dilution was sprayed over potted cabbages at the four to five leaf stage at a volume of 25 ml per pot. After the treated plants were air dried, ten third-instar larvae of Plutella xylostella were set free on each pot. After 4 days, the mortality was determined.

Heliothis virescens = test: Insecticidal test against Heliothis virescens; format: in vivo; settings: 168 h, 100 ppm water dilution, 0.2 ml on surface of artificial diet, second-instar larvae, after 7 days
Protocol: A water dilution (100 ppm) of a test compound formulation obtained according to Formulation Example 1 was added dropwise at a volume of 0.2 ml and uniformly spread over the surface of an artificial diet having a weight of 3 g, which had been prepared in a 30 ml plastic cup. After air drying, one second-instar larva of Heliothis virescens was set free in each cup. Ten larvae were used for each treatment. After 7 days, the mortality of the larvae was determined.

Cydia pomonella = test: Insecticidal test against Cydia pomonella; format: in vivo; settings: 168 h, 100 ppm water dilution, 0.2 ml on surface of artificial diet, eggs just before hatching, after 7 days
Protocol: A water dilution (100 ppm) of a test compound formulation obtained according to Formulation Example 1 was added dropwise at a volume of 0.2 ml and spread over the surface of an artificial diet having a weight of 3 g, which had been prepared in a 30 ml polyethylene cup. After air drying, placed in the cup was a piece of wax paper (about 2.5 cm square) having about 20 eggs which had been laid by Cydia pomonella and were just before hatching. Four pieces of such wax paper were used for each treatment. After 7 days, the mortality of the larvae was determined.

Helicoverpa armigera = test: Insecticidal test against Helicoverpa armigera; format: in vivo; settings: 120 h, 100 ppm water dilution, cotton leaf fragment immersed 10 seconds, third-instar larvae, after 5 days
Protocol: A cotton leaf fragment (diameter, 5 cm) was immersed for 10 seconds Lin a water dilution (100 ppm) of a test compound formulation obtained according to Formulation Example 1. This fragment was taken out from the dilution, air dried, and placed in a polyethylene cup having a diameter of 5.5 cm. One third-instar larva of Helicoverpa armigera was set free in each cup. Ten larvae were used for each treatment. After 5 days, the mortality of the larvae was determined.

Tetranychus urticae = test: Acaricidal test against Tetranychus urticae; format: in vivo; settings: 500 ppm water dilution, 15 ml sprayed over brush bean with female adults set free 6 days before; after 8 days
Protocol: About twenty female adults of Tetranychus urticae were set free on brush bean (Phaseolus vulgaris) in the primary leaf stage, which had been potted in a plastic cup for 7 days after the seeding. After 6 days, a 200-fold water dilution (500 ppm) of a test compound formulation obtained according to Formulation Example 1 or 2 was sprayed at a volume of 15 ml over the plant. After 8 days, each compound was evaluated for acaricidal activity on the following criteria.
−: almost no damage and completely no surviving mites
±: slight damage and some few surviving mites
+: rather smaller damage and a rather fewer surviving mites than non-treatment case
++: same as non-treatment case

O=[N+]([O-])c1ccc(ON=CCCCCOc2c(Cl)cc(OCC=C(Cl)Cl)cc2Cl)c([N+](=O)[O-])c1
melting point: 65.2 °C

ON=CCOCCCCOc1c(Cl)cc(OCC=C(Cl)Cl)cc1Cl [(148), 4-(2,6-dichloro-4-(3,3-dichloro-2-propenyloxy)phenoxy)butyloxyacetaldehyde oxime]
melting point: 62.8 °C

ClC(Cl)=CCON=CCCCCCOc1c(Cl)cc(OCC=C(Cl)Cl)cc1Cl [(76), 6-(2,6-dichloro-4-(3,3-dichloro-2-propenyloxy)phenoxy)hexanal O-(3,3-dichloro-2-propenyl)oxime]
mortality at 50 µg/mL (Plutella xylostella): ≥ 80%
mortality at 100 µg/mL (Heliothis virescens): ≥ 80%
mortality at 100 µg/mL (Cydia pomonella): ≥ 80%

ClC(Cl)=CCON=Cc1ccc(OCCCOc2c(Cl)cc(OCC=C(Cl)Cl)cc2Cl)cc1 [(283), 4-(3-(2,6-dichloro-4-(3,3-dichloro-2-propenyloxy)phenoxy)propyloxy)benzaldehyde O-(3,3-dichloro-2-propenyl)oxime]
mortality at 50 µg/mL (Plutella xylostella): ≥ 80%
mortality at 100 µg/mL (Helicoverpa armigera): ≥ 80%

CCON=C(C)c1ccc(OCCCCCOc2c(Cl)cc(OCC=C(Cl)Cl)cc2Cl)cc1 [(321), 4′-(5-(2,6-dichloro-4-(3,3-dichloro-2-propenyloxy)phenoxy)-pentyloxy)acetophenone O-ethyloxime]
melting point: 56.1 °C

ClC(Cl)=CCOc1cc(Cl)c(OCCCON=Cc2ccccc2)c(Cl)c1 [(523), benzaldehyde O-(3-(2,6-dichloro-4-(3,3-dichloro-2-propenyloxy)phenoxy)propyl)oxime]
mortality at 50 µg/mL (Plutella xylostella): ≥ 80%
mortality at 100 µg/mL (Heliothis virescens): ≥ 80%

CC(=NOCCCCCOc1c(Cl)cc(OCC=C(Cl)Cl)cc1Cl)c1ccc(Cl)nc1 [(569), 6-chloro-3-pyridyl methyl ketone O-(5-(2,6-dichloro-4-(3,3-dichloro-2-propenyloxy)phenoxy)pentyl)oxime]
melting point: 67.7 °C

CC(CC(C)(C)C)=NOCCCCCCOc1c(Cl)cc(OCC=C(Cl)Cl)cc1Cl [(593), 4,4-dimethyl-2-pentanone O-(6-(2,6-dichloro-4-(3,3-dichloro-2-propenyloxy)phenoxy)hexyl)oxime]
acaricidal activity (Tetranychus urticae): “−” or “±”

ClC(Cl)=CCOc1cc(Cl)c(OCc2ccc(C=NOCc3ccccc3)cc2)c(Cl)c1 [(313), 4-(2,6-dichloro-4-(3,3-dichloro-2-propenyloxy)phenoxymethyl)benzaldehyde O-benzyloxime]
melting point: 70.3 °C

ClC(Cl)=CCOc1cc(Cl)c(OCCCCOCC=NOCc2ccccc2)c(Cl)c1 [(5), 4-(2,6-dichloro-4-(3,3-dichloro-2-propenyloxy)phenoxy)butyloxyacetaldehyde O-benzyloxime]
mortality at 100 µg/mL (Heliothis virescens): ≥ 80%

ClC(Cl)=CCON=Cc1ccc(COc2c(Cl)cc(OCC=C(Cl)Cl)cc2Cl)cc1 [(279), 4-(2,6-dichloro-4-(3,3-dichloro-2-propenyloxy)phenoxymethyl)benzaldehyde O-(3,3-dichloro-2-propenyl)oxime]
mortality at 50 µg/mL (Plutella xylostella): ≥ 80%
mortality at 100 µg/mL (Cydia pomonella): ≥ 80%
mortality at 100 µg/mL (Helicoverpa armigera): ≥ 80%

CC(=NOCCCCCOc1c(Cl)cc(OCC=C(Cl)Cl)cc1Cl)C(C)(C)C [(559), 3,3-dimethyl-2-butanone O-(5-(2,6-dichloro-4-(3,3-dichloro-2-propenyloxy)phenoxy)pentyl)oxime]
mortality at 100 µg/mL (Heliothis virescens): ≥ 80%

N#Cc1ccc(C=NOCCCCOc2c(Cl)cc(OCC=C(Cl)Cl)cc2Cl)cc1 [(691), 4-cyanobenzaldehyde O-(4-(2,6-dichloro-4-(3,3-dichloro-2-propenyloxy)phenoxy)butyl)oxime]
melting point: 71.2 °C

CC(COCCCCCOc1c(Cl)cc(OCC=C(Cl)Cl)cc1Cl)=NOC(=O)C(C)(C)C [(178), 5-(2,6-dichloro-4-(3,3-dichloro-2-propenyloxy)phenoxy)pentyloxyacetone O-pivaloyloxime]
acaricidal activity (Tetranychus urticae): “−” or “±”

CC(=NOCCCCCCOc1c(Cl)cc(OCC=C(Cl)Cl)cc1Cl)C(C)C [(583), 3-methyl-2-butanone O-(6-(2,6-dichloro-4-(3,3-dichloro-2-propenyloxy)phenoxy)hexyl)oxime]
acaricidal activity (Tetranychus urticae): “−” or “±”

ClC(Cl)=CCOc1cc(Cl)c(OCCCCOCC=NOCC=C(Br)Br)c(Cl)c1 [(3), 4-(2,6-dichloro-4-(3,3-dichloro-2-propenyloxy)phenoxy)butyloxyacetaldehyde O-(3,3-dibromo-2-propenyl)oxime]
mortality at 100 µg/mL (Heliothis virescens): ≥ 80%

CCON=C(C)c1ccc(OCCCOc2c(Cl)cc(OCC=C(Cl)Cl)cc2Cl)cc1 [(293), 4′-(3-(2,6-dichloro-4-(3,3-dichloro-2-propenyloxy)phenoxy)propyloxy)acetophenone O-ethyloxime]
mortality at 100 µg/mL (Cydia pomonella): ≥ 80%
mortality at 100 µg/mL (Helicoverpa armigera): ≥ 80%

CON=Cc1ccc(COc2c(Cl)cc(OCC=C(Cl)Cl)cc2Cl)cc1 [(311), 4-(2,6-dichloro-4-(3,3-dichloro-2-propenyloxy)phenoxymethyl)benzaldehyde O-methyloxime]
melting point: 95.9 °C

ClC(Cl)=CCON=Cc1ccc(COc2c(Cl)cc(OCC=C(Br)Br)cc2Cl)cc1 [(280), 4-(2,6-dichloro-4-(3,3-dibromo-2-propenyloxy)phenoxymethyl)benzaldehyde O-(3,3-dichloro-2-propenyl)oxime]
melting point: 88.2 °C

CCCON=C(C)c1ccc(COc2c(Cl)cc(OCC=C(Cl)Cl)cc2Cl)cc1 [(346), 4′-(2,6-dichloro-4-(3,3-dichloro-2-propenyloxy)phenoxymethyl)acetophenone O-propyloxime]
mortality at 100 µg/mL (Heliothis virescens): ≥ 80%

CCc1cc(OCC=C(Cl)Cl)cc(CC)c1OCCCCOCC=NOC(C)(C)C [(11), 4-(2,6-diethyl-4-(3,3-dichloro-2-propenyloxy)phenoxy)butyloxyacetaldehyde O-tert-butyloxime]
mortality at 100 µg/mL (Heliothis virescens): ≥ 80%
mortality at 100 µg/mL (Cydia pomonella): ≥ 80%
mortality at 100 µg/mL (Helicoverpa armigera): ≥ 80%

ON=Cc1ccc(OCCCCCOc2c(Cl)cc(OCC=C(Cl)Cl)cc2Cl)cc1 [(333), 4-(5-(2,6-dichloro-4-(3,3-dichloro-2-propenyloxy)phenoxy)pentyloxy)benzaldehyde oxime]
melting point: 90.1 °C

CC(=NOC(C)(C)C)c1ccc(OCCCCOc2c(Cl)cc(OCC=C(Cl)Cl)cc2Cl)cc1 [(298), 4′-(4-(2,6-dichloro-4-(3,3-dichloro-2-propenyloxy)phenoxy)butyloxy)acetophenone O-tert-butyloxime]
melting point: 56.4 °C

CC(=NO)c1ccc(OCCOc2c(Cl)cc(OCC=C(Cl)Cl)cc2Cl)cc1 [(337), 4′-(2-(2,6-dichloro-4-(3,3-dichloro-2-propenyloxy)phenoxy)-ethoxy)acetophenone oxime]
melting point: 121 °C

ClC(Cl)=CCOc1cc(Cl)c(OCCCCCOCC=NOCC(Cl)(Cl)Cl)c(Cl)c1 [(160), 5-(2,6-dichloro-4-(3,3-dichloro-2-propenyloxy)phenoxy)pentyloxyacetaldehyde O-(2,2,2-trichloroethyl)oxime]
mortality at 100 µg/mL (Heliothis virescens): ≥ 80%

ClC(Cl)=CCON=CCOc1ccc(COc2c(Cl)cc(OCC=C(Cl)Cl)cc2Cl)cc1 [(360), 2-(4-(2,6-dichloro-4-(3,3-dichloro-2-propenyloxy)phenoxymethyl)phenoxy)acetaldehyde O-(3,3-dichloro-2-propenyl)oxime]
melting point: 87.9 °C

CCON=Cc1ccc(COc2c(Cl)cc(OCC=C(Cl)Cl)cc2Cl)cc1 [(326), 4-(2,6-dichloro-4-(3,3-dichloro-2-propenyloxy)phenoxymethyl)benzaldehyde O-ethyloxime]
melting point: 84.8 °C

ClC(Cl)=CCOc1cc(Cl)c(OCCOc2ccc(C=NOCC=C(Br)Br)cc2)c(Cl)c1 [(282), 4-(2-(2,6-dichloro-4-(3,3-dichloro-2-propenyloxy)phenoxy)-ethoxy)benzaldehyde O-(3,3-dibromo-2-propenyl)oxime]
melting point: 90.8 °C

CCON=C(C)COc1c(Cl)cc(OCC=C(Cl)Cl)cc1Cl [(30), (2,6-dichloro-4-(3,3-dichloro-2-propenyloxy)phenoxy)acetone O-ethyloxime]
melting point: 65.4 °C
